Results as given in US20220135622A1, “ANTIBACTERIAL PEPTIDES AND METHODS OF USE” (priority 2019, published 2022).
Converted amounts (≈) assume the structure as drawn. Where two headings read alike, the source gives them in different places. Square brackets hold non-standard residues; d marks the D form. Peptide text beside a SMILES is read from it. Bip = N[C@@H](Cc1ccc(-c2ccccc2)cc1)C(=O)O; hPhe = N[C@@H](CCc1ccccc1)C(=O)O; Ahp(2) = CCCCC[C@H](N)C(=O)O; NMeM = CN[C@@H](CCSC)C(=O)O; hSer = N[C@@H](CCO)C(=O)O; NMeA = CN[C@@H](C)C(=O)O; Dap = NC[C@H](N)C(=O)O; Aib = CC(C)(N)C(=O)O

Key:
E. coli BW25113 = assay type: cell-based, Escherichia coli
Outline: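 Growth inhibition: log-phase cells (OD600 ~0.001), peptides in 2-fold series up to 400–800 μM in MHB II, EDTA 0.5 mM (E. coli) or 0.125 mM (USA300), 4 h at 37 °C, ATP luminescence readout. MICs: inoculum at OD600 ~0.0002, with or without EDTA, 20 h at 37 °C, OD600 endpoint.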

P. aeruginosa = assay type: cell-based, Pseudomonas aeruginosa
Description: (§1) Bacterial growth conditions. LB or Mueller Hinton II cation-adjusted broth (MHB II, BBL 212322) was prepared according to manufacturer's instructions and supplemented with arabinose at 0.02% for overnight growth or at indicated concentrations in the description of the figures. Bacterial cultures were grown at 37° C. When appropriate, media was supplemented with kanamycin (50 μg/mL), carbenicillin (50 μg/mL), chloramphenicol (12.5 or 25 μg/mL), hygromycin (200 μg/mL), and/or gentamicin (10 μg/mL).
(§2) Peptide sensitivity and MIC assays. Lyophilized peptides (Smartox Biotechnology, CPC Scientific. ABclonal) were solubilized to 10 mM in Tris buffer, pH 8, prior to making a 2-fold dilution series in MHBII cation adjusted broth with highest final assay concentration of 400-800 μM. Bacteria were grown to log phase and added to final OD600˜0.001. The final EDTA concentration was 0.5 mM for E. coli strains and 0.125 mM for USA300. The final volume of 10 μL/well in a 384 well black, clear bottom plate (Corning) was spun <1 min at <250×g and then incubated at 37° C. After 4 h, an equal volume (10 μL) of BacTiter-Glo™ (Promega) was added to each well and luminescence was read after 5 min on an EnVision plate reader (PerkinElmer). To measure the minimal inhibitory concentrations (MICs), bacteria from fresh overnight plates or log phase cultures were diluted with or without EDTA and peptides as described above to final OD600˜0.0002. Plates were incubated at 37° C. for 20 h before measuring OD600 with an EnVision plate reader.

A. baumannii = assay type: cell-based, Acinetobacter baumannii
Description: as §1, §2

K. pneumoniae = assay type: cell-based, Klebsiella pneumoniae
Description: as §1, §2

Row | Compound | MIC E. coli BW25113 (E. coli BW25113; Table 8) [µM] | MIC R. aeruginosa (P. aeruginosa; Table 8) [µM] | MIC A. baumannii (A. baumannii; Table 8) [µM] | MIC K. pneumoniae (K. pneumoniae; Table 8) [µM] | MIC E. coli BW25113 (E. coli BW25113; BW25113) [µM] | MIC R. aeruginosa (P. aeruginosa) [µM] | MIC A. baumannii (A. baumannii) [µM] | MIC K. pneumoniae (K. pneumoniae) [µM]
1 | CSCC[C@H](NC(=O)[C@@H]1CCCN1C(=O)[C@H](Cc1ccc(O)cc1)NC(C)=O)C(=O)N[C@H](C(=O)N[C@@H](C)C(=O)N[C@@H](CCCNC(=N)N)C(=O)N[C@@H](CCCNC(=N)N)C(=O)N[C@@H](Cc1ccc(-c2ccccc2)cc1)C(=O)N[C@@H](CC(C)C)C(=O)N[C@@H](C)C(=O)N[C@@H](CCCCN)C(=O)N[C@@H](Cc1c[nH]c2ccccc12)C(=O)NCC(=O)N[C@@H](CC(C)C)C(=O)N[C@@H](CC(C)C)C(=O)N[C@@H](CCCNC(=N)N)C(N)=O)[C@@H](C)O [compound 88] (Ac-YPMTARR[Bip]LAKWGLLR-NH2) | 100.0 (≈ 210 µg/mL) | 25.0 (≈ 52.4 µg/mL) | 12.5 (≈ 26.2 µg/mL) | 25.0 (≈ 52.4 µg/mL) | – | – | – | –
2 | CSCC[C@H](NC(=O)[C@H](CN)NC(=O)[C@H](CCSC)NC(=O)[C@@H]1CCCN1C(=O)[C@H](Cc1ccc(O)cc1)NC(C)=O)C(=O)N[C@@H](CCCNC(=N)N)C(=O)N[C@@H](CCCNC(=N)N)C(=O)N[C@@H](Cc1c[nH]c2ccccc12)C(=O)N[C@@H](CC(C)C)C(=O)N[C@@H](CCC(=O)O)C(=O)N[C@@H](CCCCN)C(=O)N[C@@H](Cc1c[nH]c2ccccc12)C(=O)NCC(=O)N[C@@H](CC(C)C)C(=O)N[C@@H](CC(C)C)C(=O)N[C@@H](CCCNC(=N)N)C(N)=O [compound 89] (Ac-YPM[Dap]MRRWLEKWGLLR-NH2) | – | – | – | – | 25.0 (≈ 54.1 µg/mL) | 100.0 (≈ 216 µg/mL) | 25.0 (≈ 54.1 µg/mL) | 25.0 (≈ 54.1 µg/mL)
3 | CSCC[C@H](NC(=O)[C@@H]1CCCN1C(=O)[C@H](Cc1ccc(O)cc1)NC(C)=O)C(=O)N[C@@H](CN)C(=O)N[C@@H](Cc1ccccc1)C(=O)N[C@@H](CCCNC(=N)N)C(=O)N[C@@H](CCCNC(=N)N)C(=O)N[C@@H](Cc1ccc(-c2ccccc2)cc1)C(=O)N[C@@H](CC(C)C)C(=O)N[C@@H](CCC(=O)O)C(=O)N[C@@H](CCCCN)C(=O)N[C@@H](Cc1c[nH]c2ccccc12)C(=O)NCC(=O)N[C@@H](CC(C)C)C(=O)N[C@@H](CC(C)C)C(=O)N[C@@H](CCCNC(=N)N)C(N)=O [compound 90] (Ac-YPM[Dap]FRR[Bip]LEKWGLLR-NH2) | 200.0 (≈ 443 µg/mL) | 25.0 (≈ 55.4 µg/mL) | 6.25 (≈ 13.8 µg/mL) | 50.0 (≈ 111 µg/mL) | – | – | – | –
4 | CC(=O)N[C@@H](Cc1ccc(O)cc1)C(=O)N1CCC[C@H]1C(=O)N[C@@H](CCc1ccccc1)C(=O)N[C@H](C(=O)N[C@@H](C)C(=O)N[C@@H](CCCNC(=N)N)C(=O)N[C@@H](CCCNC(=N)N)C(=O)N[C@@H](Cc1ccccc1)C(=O)N[C@@H](CC(C)C)C(=O)N[C@@H](CCC(=O)O)C(=O)N[C@@H](CCCCN)C(=O)N[C@@H](Cc1c[nH]c2ccccc12)C(=O)NCC(=O)N[C@@H](CC(C)C)C(=O)N[C@@H](CC(C)C)C(=O)N[C@@H](CCCNC(=N)N)C(N)=O)[C@@H](C)O [compound 91] (Ac-YP[hPhe]TARRFLEKWGLLR-NH2) | 50.0 (≈ 105 µg/mL) | >400.0 | 50.0 (≈ 105 µg/mL) | >400.0 | – | – | – | –
5 | CSCC[C@H](NC(=O)[C@@H]1CCCN1C(=O)[C@H](Cc1ccc(O)cc1)NC(C)=O)C(=O)N[C@H](C(=O)N[C@H](C)C(=O)N[C@@H](CCCNC(=N)N)C(=O)N[C@@H](CCCNC(=N)N)C(=O)N[C@@H](Cc1ccccc1)C(=O)N[C@@H](CC(C)C)C(=O)N[C@@H](CCC(=O)O)C(=O)N[C@@H](CCCCN)C(=O)N[C@@H](Cc1c[nH]c2ccccc12)C(=O)NCC(=O)N[C@@H](CC(C)C)C(=O)N[C@@H](CC(C)C)C(=O)N[C@@H](CCCNC(=N)N)C(N)=O)[C@@H](C)O [compound 92] (Ac-YPMT[dA]RRFLEKWGLLR-NH2) | 200.0 (≈ 416 µg/mL) | >400.0 | 200.0 (≈ 416 µg/mL) | >400.0 | – | – | – | –
6 | CSCC[C@H](NC(=O)[C@@H]1CCCN1C(=O)[C@H](Cc1ccc(O)cc1)NC(C)=O)C(=O)N[C@H](C(=O)NC(C)(C)C(=O)N[C@@H](CCCNC(=N)N)C(=O)N[C@@H](CCCNC(=N)N)C(=O)N[C@@H](Cc1ccccc1)C(=O)N[C@@H](CC(C)C)C(=O)N[C@@H](CCC(=O)O)C(=O)N[C@@H](CCCCN)C(=O)N[C@@H](Cc1c[nH]c2ccccc12)C(=O)NCC(=O)N[C@@H](CC(C)C)C(=O)N[C@@H](CC(C)C)C(=O)N[C@@H](CCCNC(=N)N)C(N)=O)[C@@H](C)O [compound 93] (Ac-YPMT[Aib]RRFLEKWGLLR-NH2) | 200.0 (≈ 419 µg/mL) | >400.0 | 50.0 (≈ 105 µg/mL) | 400.0 (≈ 837 µg/mL) | – | – | – | –
7 | CSCC[C@H](NC(=O)[C@@H]1CCCN1C(=O)[C@H](CCCNC(=N)N)NC(C)=O)C(=O)N[C@H](C(=O)N[C@@H](C)C(=O)N[C@@H](CCCNC(=N)N)C(=O)N[C@@H](CCCNC(=N)N)C(=O)N[C@@H](Cc1ccc(-c2ccccc2)cc1)C(=O)N[C@@H](CC(C)C)C(=O)N[C@@H](CCC(=O)O)C(=O)N[C@@H](CCCCN)C(=O)N[C@@H](Cc1c[nH]c2ccccc12)C(=O)NCC(=O)N[C@@H](CC(C)C)C(N)=O)[C@@H](C)O [compound 207] (Ac-RPMTARR[Bip]LEKWGL-NH2) | 100.0 (≈ 188 µg/mL) | 100.0 (≈ 188 µg/mL) | 100.0 (≈ 188 µg/mL) | 100.0 (≈ 188 µg/mL) | – | – | – | –
8 | CSCC[C@H](NC(=O)[C@H](CN)NC(=O)[C@H](CCSC)NC(=O)[C@@H]1CCCN1C(=O)[C@H](CCCNC(=N)N)NC(C)=O)C(=O)N[C@@H](CCCNC(=N)N)C(=O)N[C@@H](CCCNC(=N)N)C(=O)N[C@@H](Cc1ccc(-c2ccccc2)cc1)C(=O)N[C@@H](CC(C)C)C(=O)N[C@@H](CCC(=O)O)C(=O)N[C@@H](CCCCN)C(=O)N[C@@H](Cc1c[nH]c2ccccc12)C(=O)NCC(=O)N[C@@H](CC(C)C)C(N)=O [compound 209] (Ac-RPM[Dap]MRR[Bip]LEKWGL-NH2) | 6.25 (≈ 12 µg/mL) | 25.0 (≈ 48.1 µg/mL) | 12.5 (≈ 24 µg/mL) | 12.5 (≈ 24 µg/mL) | – | – | – | –
9 | CSCC[C@H](NC(=O)[C@@H]1CCCN1C(=O)[C@H](CCCNC(=N)N)NC(C)=O)C(=O)N[C@H](C(=O)N[C@@H](C)C(=O)N[C@@H](CCCNC(=N)N)C(=O)N[C@@H](CCCNC(=N)N)C(=O)N[C@@H](Cc1c[nH]c2ccccc12)C(=O)N[C@@H](CC(C)C)C(=O)N[C@@H](CCO)C(=O)N[C@@H](CCCCN)C(=O)N[C@@H](CCCNC(=N)N)C(=O)NCC(=O)N[C@@H](CC(C)C)C(N)=O)[C@@H](C)O [compound 211] (Ac-RPMTARRWL[hSer]KRGL-NH2) | 50.0 (≈ 89.2 µg/mL) | >400.0 | >400.0 | >400.0 | – | – | – | –
10 | CCCCC[C@H](NC(=O)[C@@H](NC(=O)[C@H](CCSC)NC(=O)[C@@H]1CCCN1C(=O)[C@H](CCCNC(=N)N)NC(C)=O)[C@@H](C)O)C(=O)N[C@@H](CCCNC(=N)N)C(=O)N[C@@H](CCCNC(=N)N)C(=O)N[C@@H](Cc1c[nH]c2ccccc12)C(=O)N[C@@H](CC(C)C)C(=O)N[C@@H](CCC(=O)O)C(=O)N[C@@H](CCCCN)C(=O)N[C@@H](CCCNC(=N)N)C(=O)NCC(=O)N[C@@H](CC(C)C)C(N)=O [compound 212] (Ac-RPMT[Ahp(2)]RRWLEKRGL-NH2) | 100.0 (≈ 187 µg/mL) | >400.0 | 200.0 (≈ 373 µg/mL) | >400.0 | – | – | – | –
11 | COC[C@H](NC(=O)[C@@H](NC(=O)[C@H](CCSC)NC(=O)[C@@H]1CCCN1C(=O)[C@H](CCCNC(=N)N)NC(C)=O)[C@@H](C)O)C(=O)N[C@@H](CCCNC(=N)N)C(=O)N[C@@H](CCCNC(=N)N)C(=O)N[C@@H](Cc1c[nH]c2ccccc12)C(=O)N[C@@H](CC(C)C)C(=O)N[C@@H](C)C(=O)N[C@@H](CCCCN)C(=O)N[C@@H](CCCNC(=N)N)C(=O)NCC(=O)N[C@@H](CC(C)C)C(N)=O [compound 215] (Ac-RPMTS(Me)RRWLAKRGL-NH2) | – | – | – | – | 200.0 (≈ 357 µg/mL) | >400.0 | >400.0 | >400.0
12 | CSCC[C@@H](C(=O)N[C@H](C(=O)N(C)[C@@H](C)C(=O)N[C@@H](CCCNC(=N)N)C(=O)N[C@@H](CCCNC(=N)N)C(=O)N[C@@H](Cc1c[nH]c2ccccc12)C(=O)N[C@@H](CC(C)C)C(=O)N[C@@H](C)C(=O)N[C@@H](CCCCN)C(=O)N[C@@H](CCCNC(=N)N)C(=O)NCC(=O)N[C@@H](CC(C)C)C(N)=O)[C@@H](C)O)N(C)C(=O)[C@@H]1CCCN1C(=O)[C@H](CCCNC(=N)N)NC(C)=O [compound 216] (Ac-RP[NMeM]T[NMeA]RRWLAKRGL-NH2) | – | – | – | – | 100.0 (≈ 178 µg/mL) | >400.0 | >400.0 | >400.0
13 | Ac-RPMTARRFLAKRGL-NH2 [compound 210] | 200.0 | >400.0 | >400.0 | >400.0 | – | – | – | –
